Experimental data reported in patent US20170027896A1, “METHODS AND COMPOSITIONS FOR THE TREATMENT OF VASCULAR MALFORMATION” (IFOM - FONDAZIONE ISTITUTO FIRC DI ONCOLOGIA MOLECOLARE, priority 2014, published 2017).
“Also recorded” adds a separate entry of the source.

Key:
[1] = tested on: vascular lesions in the brain of CCM3-ECKO mice; experiment: Assessment of lesion burden in brains of CCM3-ECKO mice; type: in vivo, mouse
Description: (§1) The CCM3-flox/flox mice were generated at TaconicArtemis (Koeln, Germany). Two P-lox sequences were inserted that flank exons 4 and 5 of the murine CCM3 gene, to produce a loss-of-function mutation after excision by Ore recombinase. These CCM3-flox/flox mice were bred with Cdh5(PAC)-CreERT2 mice (Wang et al, 2010) for tamoxifen-inducible endothelial-cell-specific expression of Ore-recombinase and CCM3 gene recombination. The CCM3-flox/flox-Cdh5(PAC)-CreERT2 mice were further bred with BAT-gal mice (Maretto et al, 2003) to monitor the activation of b-catenin transcription signaling, and with Rosa 26-Enhanced […] Fluorescent Protein (EYFP) (Rosa26EYFP) mice (Srinivas et al, 2001) to monitor the expression of Ore-recombinase through the expression of EYFP. Tamoxifen (Sigma) was dissolved in corn oil and 10% ethanol (at 10 mg/ml), and then diluted 1:5 in corn oil before single intragastric administration to dpn 1-2 pups (35 mg/kg body weight), as described in^14. The control (wild-type) mice included CCM3-flox/flox-Cdh5(PAC)-CreERT2-BAT-gal mice treated with the vehicle used to dissolve the tamoxifen (corn oil plus 2% ethanol), and CCM3^+/+-Cdh5(PAC)-CreERT2-BAT-gal mice treated with tamoxifen.
Brains and eyes from mice pups were fixed in 3% paraformaldehyde immediately after dissection, and this fixing was continued overnight at 4° C. The retinas were dissected from the eyes just before staining as the whole mount. Fixed brains were embedded in 4% low-melting-point agarose and sectioned along the sagittal axis ([…]) using a vibratome (1000 Plus, The Vibratome Company, St. Louis, Mo., US).
For the classification and counting of lesions, entire brains from dpn 9 littermate pups were sectioned and immunostained for Pecam as described above and in the Methods. Sections were then examined under wide-field fluorescence microscopy (10× and 20×). Lesions were classified as described in^63 as mulberry (multiple cavernae, group of more than two contiguous cavernae), single caverna (single dilated vessel with maximal diameter accommodating more than 25 red blood cells), or telangiectases, tortuous small vessels with abnormally dilated lumen). The total numbers of lesions were calculated by summing all of the types of lesions.
As the sections were […], a correction was applied to the number of mulberry lesions, which can span two sections. Therefore, the number of mulberry lesions was divided by […]. The lesions were counted and classified independently by two observers who were blinded to the treatments.
The maximal diameter of the mulberry lesions and single cavernae was used for statistical comparison.

[2] = tested on: vascular malformations in the retina of CCM3-ECKO mice; experiment: Retina vascular lesions and vein diameter in CCM3-ECKO mice; type: in vivo, mouse
Description: as §1
Brains and eyes from mice pups were fixed in 3% paraformaldehyde immediately after dissection, and this fixing was continued overnight at 4° C. […]

[3] = tested on: CCM3-knockout brain endothelial cells in primary culture; experiment: rtPCR of b-catenin target genes in primary cultures of CCM3-knockout brain endothelial cells; type: cell-based, mouse; set-up: dose or concentration left out as unconfirmed; details: 48 h
Description: Endothelial cells from the CCM3-flox/flox mice (8-10 weeks old) were isolated from the brain as previously described^13. Recombination of the floxed CCM3 gene was induced by treating the cells at culture day 1 with the AdenoCre viral vector, as previously described^59. The control endothelial cells were an aliquot of the same endothelial cell preparation treated with AdenoGFP, instead of AdenoCre. The cells were then maintained in culture for up to a further 7 days before analysis, as described in the main text. Drug treatments were for 48 h before the processing of the cells. Drugs were added to confluent cells for 48 h before the indicated assays. The final concentrations used were: […] (all from Sigma-Aldrich). As all of these were dissolved in DMSO, control treatment (vehicle) was 0.1% DMSO final concentration, as for drug treatment. RNA extraction was performed with RNeasy kits (74106; Promega). The RNA (1 μg) was reverse transcribed with random hexamers (High Capacity cDNA Archive kits; Applied Biosystems). […] For each sample, the expression levels were determined with the comparative threshold cycle (Ct) method, and normalized to the housekeeping genes encoding 18S and glyceraldehyde-3-phosphate dehydrogenase (GAPDH). […]

cyclooxygenase = details: reported; cited from earlier work

**Q.** With `CSc1ccc(/C=C2/C(C)=C(CC(=O)O)c3cc(F)ccc32)cc1` [sulindac sulfide, (Z)-5-Fluoro-2-methyl-1-[4-(methylthio)benzylidene]indene-3-acetic acid] as the compound, how does the “diameters of cerebral vessels / mulberry budding ends (Pecam immunostaining of brain sections)” value ([1]; CCM3-ECKO pups at dpn9, treated from dpn2) read?
**A.** greatly reduces

**Q.** And the “maximal diameter of single cavernae” value ([1]; CCM3-ECKO pups dpn 9, 30 mg/kg daily)?
**A.** did not significantly reduce

**Q.** What about the mean maximal diameter of mulberry lesions (±SD) ([1]; CCM3-ECKO pups dpn 9, 30 mg/kg daily, vehicle 386±56 mm) of the same compound?
**A.** 244 ± 38 µm

**Q.** And the “mean number (±SD) of vascular lesions per brain” value ([1]; CCM3-ECKO pups dpn 9, 30 mg/kg intragastrically daily, controls 166.8±22 (sulfide study), 153.5±28 (sulfone study))?
**A.** 72.6±9

**Q.** What about the “vascular malformations in the retina” value ([2]; CCM3-ECKO mice, dpn 9) of the same compound?
**A.** inhibited; also recorded: partially normalized

**Q.** What about the diameter of the most internal tract of the retinal veins (mean±SD) ([2]; CCM3-ECKO, 30 measurements in 14 retinas, vehicle-ECKO 89.5±7.1 mm) of the same compound?
**A.** 35 ± 7.8 µm

**Q.** What about the “expression of endogenous b-catenin target genes (Klf4, Ly6a, S100a4, Id1; rtPCR)” value [3] of the same compound?
**A.** effectively inhibited

**Q.** And the anti-cyclooxygenase activity (cyclooxygenase)?
**A.** inhibits
